Measurements: the C3SDB collision cross section collection

Key:
[1] = instrument: TW, calibrated with phosphatidylcholines (ESI+) and phosphatidylethanolamines (ESI-)
[2] = instrument: TW, calibrated with phosphatidylcholines (ESI+) and phosphatidylethanolamines (ESI-); remark: listed apart in the source
[3] = [M+H]+; instrument: DT; stepped-field
[4] = instrument: DT, single field, calibrated with Agilent tune mix (Agilent)
[5] = instrument: TW, calibrated with phosphatidylcholines (ESI+) and phosphatidylethanolamines (ESI-), doubly charged cardiolipins calibrated with poly-DL-…
[6] = [M+Na]+; instrument: DT; stepped-field
[7] = [M+H]+; instrument: DT; single field, calibrated with Agilent tune mix (Agilent)

CCCCCC/C=C\CCCCCCCCCC(=O)OC(COC(=O)CCCCCCCCCCCCCCC)COP(=O)([O-])OCC(O)COC(=O)C(C)[NH3+] (configuration not stated) [AlaPG(34:1)]
collision cross section (N2) ([1]; [M+H]+): 291.7 Å² | collision cross section (N2) ([1]; [M+K]+): 293.6 Å² | collision cross section (N2) ([1]; [M+Na]+): 294.3 Å²

CCCCCCCCCCCCCCCCCC(=O)N[C@@H](CO)[C@H](O)CCCCCCCCCCCCCCC [Cer(d18:0/18:0)]
collision cross section (N2) ([2]; [M+H]+): 263.1 Å²

CCCCCCCCCCCCCCCCCCCC(=O)N[C@@H](CO)[C@H](O)CCCCCCCCCCCCCCC [Cer(d18:0/20:0)]
collision cross section (N2) ([2]; [M+H]+): 269.1 Å²

CCCCCCCCCCCCC=CC[C@@H](O)[C@H](CO)NC(=O)CC=CCCCCCCCCCCCCCCCCCC [Cer(d18:1/22:1)]
collision cross section (N2) ([2]; [M+H]+): 270.2 Å² | collision cross section (N2) ([2]; [M-H]-): 260.2 Å²

CCCCCCCCCCCCC=CC[C@@H](O)[C@H](CO)NC(=O)CC=CCCCCCCCCCCCCCCCCCCCCCC [Cer(d18:1/26:1)]
collision cross section (N2) ([2]; [M+H]+): 282.4 Å²

CCCCCCCCCCCCCC=CCC(=O)OC[C@H](CO[C@@H]1O[C@H](CO[C@H]2O[C@H](CO)[C@H](O)C(O)C2O)[C@H](O)C(O)C1O)OC(=O)CC=CCCCCCCCCCCCCC (some centres not stated) [DGDG(16:0/18:2)]
collision cross section (N2) ([1]; [M+CH3COO]-): 312.7 Å² | collision cross section (N2) ([1]; [M+Cl]-): 304.9 Å² | collision cross section (N2) ([1]; [M+NH4]+): 307.5 Å² | collision cross section (N2) ([1]; [M+Na]+): 306.5 Å² | collision cross section (N2) ([1]; [M-H]-): 301.9 Å²

CCCCCCCCCCCCC=CC[C@@H](O)[C@H](CO[C@@H]1O[C@H](CO)[C@@H](O)C(O)C1O)NC(=O)CC=CCCCCCCCCCCCCCC (some centres not stated) [GlcCer(d18:1/18:1)]
collision cross section (N2) ([2]; [M+H]+): 281.8 Å²

CCCCCCCCCCCCC=CC[C@@H](O)[C@H](CO[C@@H]1O[C@H](CO)[C@@H](O)C(O)C1O)NC(=O)CC=CCCCCCCCCCCCCCCCCCCCC (some centres not stated) [GlcCer(d18:1/24:1)]
collision cross section (N2) ([2]; [M+H]+): 298.2 Å² | collision cross section (N2) ([2]; [M+Na]+): 297.3 Å²

CCCCCCCCCCCCCCCC(=O)OCC(O)COP(=O)([O-])OCC[N+](C)(C)C (configuration not stated) [LPC(16:0)]
collision cross section (N2) [3]: 233.3 Å² | collision cross section (N2) ([2]; [M+H]+): 228.5 Å² | collision cross section (N2) ([4]; [M+HCOO]-): 235 Å² | collision cross section (N2) ([4]; [M+H]+): 229.8 Å²

CCCCC/C=C\C/C=C\C/C=C\CCCCCCC(=O)OC[C@@H](O)COP(=O)([O-])OCC[N+](C)(C)C [LPC(20:3)]
collision cross section (N2) ([2]; [M+H]+): 239 Å²

CC/C=C\C/C=C\C/C=C\C/C=C\CCCCCCC(=O)OC[C@@H](O)COP(=O)([O-])OCC[N+](C)(C)C [LPC(20:4)]
collision cross section (N2) ([2]; [M+H]+): 232.4 Å²

CCCCC/C=C\C/C=C\CCCCCCCC(=O)O[C@H](COC(=O)CCCCCCCCCCCCCCCCC)COP(=O)(O)O [PA(36:2)]
collision cross section (N2) ([2]; [M-H]-): 259.5 Å² | collision cross section (N2) ([4]; [M+NH4]+): 274.5 Å² | collision cross section (N2) ([4]; [M+Na]+): 274 Å² | collision cross section (N2) ([4]; [M-H]-): 260.2 Å²

CCCCC/C=C\C/C=C\C/C=C\CCCCC(=O)OC[C@H](COP(=O)([O-])OCC[N+](C)(C)C)OC(=O)CCCCCCC/C=C\CCCCCCCC [PC(36:4)]
collision cross section (N2) ([2]; [M+CH3COO]-): 290.8 Å² | collision cross section (N2) ([2]; [M+H]+): 286 Å² | collision cross section (N2) ([4]; [M+HCOO]-): 288.4 Å²

CCCCC/C=C\C/C=C\CCCCCCCCCCCC(=O)O[C@H](COC(=O)CCCCCCC/C=C\C/C=C\CCCCC)COP(=O)([O-])OCC[N+](C)(C)C [PC(40:4)]
collision cross section (N2) ([2]; [M+H]+): 296.1 Å² | collision cross section (N2) ([4]; [M+H]+): 300.2 Å²

CC/C=C\C/C=C\C/C=C\C/C=C\CCCCC(=O)OC[C@H](COP(=O)([O-])OCC[N+](C)(C)C)OC(=O)CCCCC/C=C\C/C=C\C/C=C\C/C=C\CCCCC [PC(40:8)]
collision cross section (N2) ([2]; [M+H]+): 291.6 Å²

CCCCCCCC/C=C\CCCCCCCC(=O)OC(COC(=O)CCCCCCCCCCCCCCCCC)COP(=O)(O)OCCN (configuration not stated) [PE(36:1)]
collision cross section (N2) ([5]; [M+H]+): 280.06 Å² | collision cross section (N2) ([5]; [M-H]-): 270.25 Å²

CCCCC/C=C\C/C=C\C/C=C\CCCCCCC(=O)O[C@H](COC(=O)CCCCCCC/C=C\C/C=C\CCCCC)COP(=O)(O)OCCN [PE(38:5)]
collision cross section (N2) ([2]; [M+H]+): 276 Å² | collision cross section (N2) ([2]; [M-H]-): 269.5 Å² | collision cross section (N2) [6]: 287.2 Å² | collision cross section (N2) ([4]; [M+H]+): 280.1 Å² | collision cross section (N2) ([4]; [M-H]-): 271.2 Å²

CC/C=C\C/C=C\C/C=C\C/C=C\C/C=C\CCCC(=O)OC[C@H](COP(=O)(O)OCCN)OC(=O)CCCCC/C=C\C/C=C\C/C=C\C/C=C\CCCCC [PE(42:9)]
collision cross section (N2) ([2]; [M+H]+): 288.2 Å² | collision cross section (N2) [6]: 295.6 Å²

CC/C=C\C/C=C\C/C=C\C/C=C\C/C=C\CCCCCC(=O)O[C@H](COC(=O)CCC/C=C\C/C=C\C/C=C\C/C=C\C/C=C\CC)COP(=O)(O)OCCN [PE(42:10)]
collision cross section (N2) ([2]; [M+H]+): 285 Å² | collision cross section (N2) [6]: 291 Å²

CCCC/C=C\CCCCCCCC(=O)O[C@H](CO/C=C\CCCCCCCCCCCCCCCCCC)COP(=O)(O)OCCN [PE(p34:1)]
collision cross section (N2) ([2]; [M-H]-): 262.1 Å² | collision cross section (N2) ([4]; [M+H]+): 273.2 Å² | collision cross section (N2) ([4]; [M+Na]+): 276.9 Å² | collision cross section (N2) ([4]; [M-H]-): 262.2 Å²

CCCCCC/C=C\CCCCCCCC(=O)O[C@H](CO/C=C\CCCCCCCCCCCCCCCCCC)COP(=O)(O)OCCN [PE(p36:1)]
collision cross section (N2) ([2]; [M+H]+): 279.7 Å² | collision cross section (N2) ([2]; [M-H]-): 267.3 Å²

CCCCC/C=C\C/C=C\CCCCCCCCCC(=O)O[C@H](CO/C=C\CCCCCCCCCCCCCC)COP(=O)(O)OCCN [PE(p36:2)]
collision cross section (N2) ([2]; [M+H]+): 278.1 Å² | collision cross section (N2) ([2]; [M-H]-): 266.5 Å² | collision cross section (N2) ([4]; [M+H]+): 277.1 Å² | collision cross section (N2) ([4]; [M-H]-): 267.6 Å²

CC/C=C\C/C=C\C/C=C\C/C=C\C/C=C\CCCC(=O)O[C@H](CO/C=C\CCCCCCCCCCCCCC)COP(=O)(O)OCCN [PE(p36:5)]
collision cross section (N2) ([2]; [M+H]+): 274.2 Å²

CCCCC/C=C\C/C=C\C/C=C\CCCCCCC(=O)O[C@H](CO/C=C\CCCCCCCCCCCCCCCC)COP(=O)(O)OCCN [PE(p38:3)]
collision cross section (N2) ([2]; [M+H]+): 281.4 Å² | collision cross section (N2) ([2]; [M-H]-): 270.9 Å²

CCCCC/C=C\C/C=C\C/C=C\C/C=C\CCCCCC(=O)O[C@H](CO/C=C\CCCCCCCCCCCCCC)COP(=O)(O)OCCN [PE(p38:4)]
collision cross section (N2) ([2]; [M+H]+): 280.6 Å² | collision cross section (N2) ([2]; [M-H]-): 270.3 Å² | collision cross section (N2) ([4]; [M+H]+): 281.5 Å²

CCCCCC/C=C\CCCCCCCC(=O)OCC(COP(=O)(O)OCC(O)CO)OC(=O)CCCCCCCCCCCCC (configuration not stated) [PG(30:1)]
collision cross section (N2) ([5]; [M+Na]+): 268.07 Å²

CCCCCC/C=C\CCCCCCCC(=O)OCC(COP(=O)(O)OCC(O)CO)OC(=O)CCCCCCC/C=C\CCCCCC (configuration not stated) [PG(32:2)]
collision cross section (N2) ([5]; [M+Na]+): 272.38 Å² | collision cross section (N2) ([5]; [M-H]-): 261.31 Å²

CCCCCCCCCCCCCCCC(=O)OCC(COP(=O)(O)OCC(O)CO)OC(=O)CCCCCCCC1CC1CCCCCC (configuration not stated) [PG(33:1)]
collision cross section (N2) ([5]; [M+Na]+): 280.56 Å² | collision cross section (N2) ([5]; [M-H]-): 266.36 Å²

CCCCCCCC/C=C\CCCCCCCC(=O)OC(COC(=O)CCCCCCCCCCCCCCC)COP(=O)(O)OCC(O)CO (configuration not stated) [PG(34:1)]
collision cross section (N2) ([5]; [M+Na]+): 281.03 Å² | collision cross section (N2) ([5]; [M-H]-): 270.03 Å²

CCCCCCCC/C=C\CCCCCCCC(=O)OC(COC(=O)CCCCCCCCCCCCCCCCC)COP(=O)(O)OCC(O)CO (configuration not stated) [PG(36:1)]
collision cross section (N2) ([5]; [M-H]-): 276.25 Å²

CC/C=C\C/C=C\C/C=C\C/C=C\CCCCC(=O)O[C@H](COC(=O)CCCCCCCCCCC/C=C\C/C=C\CCCCC)COP(=O)(O)OC[C@@H](O)CO [PG(40:6)]
collision cross section (N2) ([2]; [M+Na]+): 290 Å² | collision cross section (N2) ([2]; [M-H]-): 281.9 Å² | collision cross section (N2) ([4]; [M+NH4]+): 296.6 Å² | collision cross section (N2) ([4]; [M+Na]+): 292.4 Å²

CCCCCCCCCC/C=C\CCCCCCCCCC(=O)O[C@H](COC(=O)CCCCCCCCCCCCC)COP(=O)(O)O[C@H]1C(O)C(O)C(O)[C@@H](O)C1O (some centres not stated) [PI(36:1)]
collision cross section (N2) ([2]; [M+Na]+): 297.2 Å² | collision cross section (N2) ([2]; [M-H]-): 289.6 Å² | collision cross section (N2) ([4]; [M+H]+): 301.6 Å² | collision cross section (N2) ([4]; [M+NH4]+): 302.2 Å² | collision cross section (N2) ([4]; [M+Na]+): 299 Å² | collision cross section (N2) ([4]; [M-H]-): 290.5 Å²

CCCCC/C=C\C/C=C\C/C=C\C/C=C\CCCC(=O)O[C@H](COC(=O)CCCCCCC/C=C\CCCCCCCC)COP(=O)(O)O[C@H]1C(O)C(O)C(O)[C@@H](OP(=O)(O)O)C1O (some centres not stated) [PIP(38:5)]
collision cross section (N2) ([2]; [M+H-H2O]+): 299.7 Å²

CCCCCCCCCCCCC=CC[C@@H](O)[C@H](COP(=O)([O-])OCC[N+](C)(C)C)NC(=O)CCCCCCCCCCCCCCC [SM(d18:1/16:0)]
collision cross section (N2) ([2]; [M+H]+): 281.1 Å²

CCCCCCCCCCCCC=CC[C@@H](O)[C@H](COP(=O)([O-])OCC[N+](C)(C)C)NC(=O)CCCCCCCCCCCCCCCCC [SM(d18:1/18:0)]
collision cross section (N2) [7]: 290.2 Å² | collision cross section (N2) ([2]; [M+H]+): 286.6 Å²

CCCCCCCCCCCCC=CC[C@@H](O)[C@H](COP(=O)([O-])OCC[N+](C)(C)C)NC(=O)CC=CCCCCCCCCCCCCCCCCCC [SM(d18:1/22:1)]
collision cross section (N2) ([2]; [M+H]+): 295 Å²
